Measurements from US20040009168A1, “Multidose antibody formulation” (priority 2002, published 2004).
Entries after “also recorded” stand apart in the source; their conditions may differ.

Legend:
[1] = system: formulated humanized monoclonal antibody; assay: Size-exclusion chromatography (SEC), monomer content; format: physicochemical; settings: for Monomer (%): 1 week at 45 ° C.; for Percent monomer (by SEC): after 2 days at 50° C.
Method: (§1) The compatibility of six parenteral preservatives (benzyl alcohol, chlorobutanol, methyl paraben, propyl paraben, phenol, and m-cresol) with the formulated humanized monoclonal antibody was tested. The preservatives were added to the formulated antibody based on their commonly used concentration ranges in marketed multidose products (3). Protein aggregation was suspected to be the primary degradation pathway. Preliminary evaluation of the preservatives was done initially by DSC and after 2 days of incubation at 50° C. by visual inspection for appearance and by SEC for soluble aggregates.
(§2) Because of the results seen in the preliminary evaluation, additional analyses were done using lower concentrations of the preservatives.
The monomer content, soluble aggregates, and clips due to hydrolysis were monitored by size-exclusion chromatography. The analytical system employed consisted of an HPLC pump (Perkin Elmer, Series 410) and an autosampler (Perkin Elmer, ISS 2000) connected to a diode array detector (Perkin Elmer, 235C). Two size-exclusion chromatography columns (Tosohaas TSK-Gel, G3000SWXL,), connected in tandem, were used for sample separation. The composition of the mobile phase was 200 mM KPO4, 150 mM NaCl, pH 6.9. Samples were diluted to 1 mg/mL and a sample volume of 40 μL was injected for analysis. The flow rate was 1.0 mL/min, and detection was at 220 and 280 nm.

[2] = system: formulated humanized monoclonal antibody; assay: Stability and bioactivity of the protein formulated with 0.75% benzyl alcohol, monitored over time; format: physicochemical
[3] = system: Escherichia coli, Staphylococcus aureus, Pseudomonas aeruginosa, Candida albicans, and Aspergillus niger; assay: USP and EP/BP preservative efficacy tests; format: cell-based; settings: 0.75% benzyl alcohol
Method: (§3) In the unmodified USP/EP preservative efficacy tests, each microorganism is tested separately at a concentration of ˜10^5 cfu/mL. […] The preservative efficacy test was modified in this study to reduce the total sample requirement and cost per analysis. Although the bacterial and fungal strains were not tested individually at specified concentrations, by comparing the overall bacterial and fungal log reduction values with the regulatory requirements, an assessment is made of the efficacy of the preservative against these microorganisms.
The antimicrobial efficacy of the preservative was monitored by the USP and EP/BP preservative efficacy tests.

[4] = system: Candida albicans, and Aspergillus niger; assay: Preservative screening test (modified USP/EP preservative efficacy test), fungi; format: cell-based; settings: for Fungi × 10^5 (cfu/mL): 1 week at 25 ° C., total fungal count 2.84 × 10^5 cfu/mL
Method: (§4) The efficacy of the preservative against various microorganisms was measured using a modified USP/EP preservative efficacy test. These tests were conducted at Microconsult Inc. (Dallas, Tex.). In the procedure, formulations were tested against the following microorganisms: Escherichia coli, Staphylococcus aureus, Pseudomonas aeruginosa, Candida albicans, and Aspergillus niger. The three bacterial strains were inoculated together at a total concentration of ˜10^5 cfu/mL, and the two fungi were inoculated together at a total concentration of ˜10^5 cfu/mL. Samples were incubated for 7 days at room temperature (25° C.), and the total bacterial and fungal counts were measured using a colony counter. The log reduction (LR) values for the bacterial and fungal counts were calculated as log (initial count/final count).
as §3
(§5) The formulations were prepared by adding the preservatives at the desired concentrations as per the I-optimal design table (Table II), generated using the software Strategy (Experiment Strategies Foundation & Process Builder, Inc.). All samples were incubated at 37° C. for 9 weeks. Because protein aggregation was known to be the primary degradation pathway, protein stability was examined by SEC and right-angle light scattering to monitor the formation of soluble and insoluble aggregates, respectively, and by UV spectroscopy to monitor changes in the protein concentration. The biological activity of the samples was assessed after 1 month at 37° C. Furthermore, to assess the antimicrobial efficacy of the formulations, samples were examined by the preservative screening test at the initial time point. Samples were incubated at room temperature, and the aerobic plate counts were measured based on the minimum requirements of the USP and BP/EP preservative efficacy tests at 24 hours, 7 days, and 14 days.

[5] = system: formulated humanized monoclonal antibody; assay: Visual analysis of the antibody formulation with preservative; format: physicochemical; settings: for Visual analysis: after 2 days at 50° C.
Method: as §1

[6] = system: formulated humanized monoclonal antibody; assay: Differential scanning calorimetry (DSC), denaturation temperature; format: physicochemical; settings: initial time point, t0
Method: as §1
A decrease in the denaturation temperature reflects a destabilizing effect of the preservative on formulation stability. The denaturation temperature (Tm) of the sample was measured using the Pyris 1 differential scanning calorimeter (Perkin Elmer). A sample volume of 50 μL was taken from a 10 mg/mL protein sample and sealed in a stainless steel pan. The sample was held at 32° C. for 2 minutes, and heated to 100° C. at the rate of 10° C./min.

[7] = system: Escherichia coli, Staphylococcus aureus, Pseudomonas aeruginosa; assay: Preservative screening test (modified USP/EP preservative efficacy test), bacteria; format: cell-based; settings: for b-coefficient, Bacterial LR: ± 95% confidence limits; for Bacterial × 10^4 (cfu/mL): 1 week at 25 ° C., total bacterial count 8.78 × 10^4 cfu/mL
Method: as §4, §3, §5

[8] = system: antigen expressed on human T cells; assay: Potency testing by FACS binding assay (flow cytometry); settings: 1 week at 45 ° C.
Method: as §2
The biological activity (potency) of the protein was measured by flow cytometry, based on the binding of the antibody antigen expressed on human T cells.

[9] = preservative 0.5%, listed as benzyl alcohol
[10] = main effect of the preservative (bi)
[11] = preservative 0.75%, listed as benzyl alcohol
[12] = quadratic term of one preservative (bii)
[13] = single preservative, 0.75% benzyl alcohol

## OCc1ccccc1 [Benzyl alcohol, benzyl alcohol]
[1]; 7 days at 45° C.
  Stability by SEC (in words): unstable due to the formation of soluble aggregates
[1]; benzyl alcohol at high concentrations (≧1.0%)
  aggregation (in words): caused significant aggregation
[1]; preservative 0.1%
  Monomer (%): 97.65%
[1]; preservative 0.5%
  Monomer (%): 93.92%
  Percent monomer (by SEC): 92.3%
[1]; [9]
  Percent monomer (by SEC): ~92%
[1]; preservative 0.75%
  Monomer (%): 87.97%
[1]; preservative 1.0%
  Percent monomer (by SEC): 13.4%
[2]
  protein stability compared with the control formulation: comparable to that of the control formulation
[3]
  USP and EP/BP regulatory requirements: USP and EP/BP (criterion B only) regulatory requirements were satisfied
[4]; 7 days, at least 0.5% benzyl alcohol, parabens and chlorobutanol at their highest concentration
  antimicrobial efficacy against fungi (in words): satisfactory
[4]; [10]
  b-coefficient, Fungal LR: 0.51
[4]; preservative 0.1%
  Fungi × 10^5 (cfu/mL): 12 × 10^5 cfu/mL
[4]; preservative 0.5%
  Fungi × 10^5 (cfu/mL): 0 × 10^5 cfu/mL
[4]; [9]
  Fungi × 10^5 (cfu/mL): complete kill
[4]; preservative 0.75%
  Fungi × 10^5 (cfu/mL): 0 × 10^5 cfu/mL
[4]; [11]
  Fungi × 10^5 (cfu/mL): complete kill
[4]; [12]
  b-coefficient, Fungal LR: −0.46
[4]; [13]
  log reduction value predicted by simulation, fungi: 3.7
[5]; benzyl alcohol at high concentration such as 1.0%
  antibody precipitation: causes antibody precipitation
[5]; preservative 0.5%
  Visual analysis: Clear
[5]; [9]
  Visual analysis: clear
[5]; preservative 1.0%
  Visual analysis: Slightly cloudy
[5]; preservative 2%
  Visual analysis: caused sample precipitation; also recorded: Precipitated
[6]; preservative 0.5%
  Tm (by DSC): 78.5 °C
[6]; preservative 1.0%
  Tm (by DSC): 75.8 °C
[6]; preservative 2%
  Tm (by DSC): 72.3 °C
[7]; I-optimal design, 14 days at room temperature
  antimicrobial efficacy against bacteria (regression analysis, in words): statistically significant antimicrobial efficacy
[7]; [10]
  b-coefficient, Bacterial LR: 1.04 ± 0.05
[7]; preservative 0.1%
  Bacterial × 10^4 (cfu/mL): TNTC
[7]; preservative 0.5%
  Bacterial × 10^4 (cfu/mL): 0 × 10^4 cfu/mL
[7]; [9]
  Bacterial × 10^4 (cfu/mL): complete kill
[7]; preservative 0.75%
  Bacterial × 10^4 (cfu/mL): 0 × 10^4 cfu/mL
[7]; [11]
  Bacterial × 10^4 (cfu/mL): complete kill
[7]; [12]
  b-coefficient, Bacterial LR: −0.68 ± 0.11
[7]; [13]
  log reduction value predicted by simulation, bacteria: 4.8
[8]; preservative 0.1%
  Potency (%): 81%
[8]; preservative 0.5%
  Potency (%): 75%
[8]; preservative 0.75%
  Potency (%): 74%
